# Laboratory results as given in a melting point compilation (Tetko et al.; mined from patent text by program, amines drawn as free bases though some values may be those of a salt).
row,SMILES,melting point [°C]
1,COC(=O)C(C)=CC(C)=Cc1cc([N+](=O)[O-])ccc1Cl,88 to 90
2,O=C(O)CNC(=O)CBr,90 to 91
3,CCOC(=O)C1=C(C)Nc2ncnn2C1C (stereo unspecified),155 to 157
4,CNC(=O)NC1OCC(OC(C)=O)C(OC(C)=O)C1OC(C)=O (stereo unspecified),170 to 172
5,Cn1cnc(C=CC(=O)NC2CCNC(=O)C2)c1 (stereo unspecified),280 to 282
6,CC(C)c1csc(CO)n1,80 to 82
7,CC(C)(S)CN1CCN(Cc2ccc(O)cc2)CC1,81
8,CCNc1cc(C(C)=NO)ccn1,155 to 156
9,CC1CN(c2cc3ccccc3c(=O)[nH]2)CC(C)N1 (stereo unspecified),208 to 210
10,OCCOc1csc2ccccc12,55 to 56
11,O=[N+]([O-])c1cc(-c2ccc(Cl)cc2)[nH]c1SC(F)(F)F,185 to 193
12,O=C1CCCC2=C1C(c1cccc(C(F)(F)F)c1)C1=C(CCCC1)N2 (stereo unspecified),250 to 251
13,COc1cc2c(O)c(S(=O)(=O)N(C)C)cnc2cc1Cl,316 to 318
14,COC(=O)CCc1cnoc1-c1ccc([N+](=O)[O-])cc1,118 to 119
15,CCc1nn(C2CCCC2)c2cc(-c3cccs3)ccc12,60 to 64
16,FC(F)(F)c1cccc(CCc2nnc(-c3ccc4nccn4c3)o2)c1,152 to 153
17,CCCCCC(=O)OCC(=O)C1C(C)CC2C3=C(C(O)CC21C)C1(C)C=CC(=O)C=C1C(F)C3 (stereo unspecified),155
18,CC(=O)OCCOc1ccc(OCCOC(C)=O)c(N)c1,67.5 to 69.5
19,COCCOc1nc(NC(C)=O)nc2ccc(Cl)nc12,135
20,COc1cc2c(cc1OC)C(N(CC(=O)O)C(=O)C(CSC(C)=O)CSC(C)=O)CC2 (stereo unspecified),140 to 143
21,CN(CC=C(F)C(F)(F)C(F)(F)C(F)(F)F)CCCCCC1Cc2cc(O)ccc2C2C(F)CC3(C)C(O)CCC3C12 (stereo unspecified),130
22,CCCC(=CC=CC(C)=CC(=O)O)c1cc(C(C)(C)C)cc(C(C)(C)C)c1,143 to 144
23,CSc1[nH]nc(-c2ccc(Cl)cc2F)c1C,88 to 90
24,CS(=O)(=O)OCCOc1ccccc1OCC1CC1,90 to 91
25,COC(=O)Nc1nc2cc(S(=O)CC3CCC3)ccc2[nH]1 (stereo unspecified),198 to 206
26,O=C1NC(=O)C2(CCc3cc(F)ccc32)N1 (racemic),> 260

row,SMILES,melting point [°C]
1,N#Cc1cncc(OC2SCC(O)C(O)C2O)c1 (stereo unspecified),149
2,COc1ccc(N2CCN(c3c(C)c4c(c(OC)c3C)OC(C)C4)CC2)cc1C (stereo unspecified),94 to 96
3,COc1ccc2[nH]cc(CCC(=O)O)c2c1,80
4,CN(C)CCN(C1CCS(=O)(=O)C1)S(=O)(=O)c1ccc(Nc2nccc(Nc3ccc(F)cc3)n2)cc1 (stereo unspecified),162 to 165
5,CCOCCOc1ccc(CCNC(=O)OC(C)(C)C)cc1,56 to 57
6,O=c1[nH]ncn1-c1ccc(I)cc1,258
7,COc1ccc(C=O)nc1I,118 to 121
8,CC(C)Nc1nc2c(F)c(F)c(Cl)cc2[nH]1,175 to 178
9,[N-]=[N+]=NS(=O)(=O)c1cc(C(=O)O)c(O)c(S(=O)(=O)N=[N+]=[N-])c1,184 to 186
10,COc1ccc(Cc2cc(O)ccc2OC)cn1,121 to 124
11,CO[C@@H]1C=C2C=C3C(=C(C)C(=O)N3C)C[C@]2(C)[C@@H](C)[C@H]1O,165 to 170
12,Cc1ccc(-c2nc(CCCC#N)c(C(F)(F)F)o2)cc1,41 to 42.5
13,CCC1(C)CC(S(=O)Cc2c(F)cccc2F)=NO1 (stereo unspecified),< 30
14,COc1nnc2n1C=Cc1cc(C)ccc1C2,148 to 149
15,CC(C)=NNC1=NCc2c[nH]c3cccc1c23,200 to 201
16,Cc1c(N)cc2c(c1C)OC(C)(C)C2=O,149 to 150
17,O=C(c1ccc(-c2ccccc2)cc1)C1CCN(CCc2c[nH]c3ccccc23)CC1,189 to 192
18,COc1c(OC2CCC(=O)CC2)ccnc1C,56 to 57
19,CN(c1cccc2cc(C3=NCC(CC(N)=O)S3)[nH]c12)S(=O)(=O)c1nccs1 (stereo unspecified),216 to 218
20,FC(F)(F)c1ccc(COc2ccnc(CCl)c2)cc1,133 to 135
21,COc1cccc(-c2[nH]cc(C3=C[C@@H]4C[C@@H](c5ccccc5)CN4CC3)c2-c2ccncc2)c1,141 to 144
22,CCOC(=O)CCCCSc1nnc(S)s1,53
23,COc1cc(OC)nc(OC)c1,47 to 49
24,CC(C)(C)C(C)(C)Nc1nc(NC(C)(C)C(C)(C)C)nc(N2CC3CCC(CC3)C2)n1,282 to 284
25,CCCCCCc1cc2c(cc1C(=O)O)CCCCC2(C)C,74 to 75
26,C#CCCCC1(S(=O)(=O)c2ccc(C)cc2)SC(=O)NC1=O (stereo unspecified),226

# More lines, now with the values ahead:
row,melting point [°C],SMILES
1,264 to 265,O=c1[nH]c(=Cc2ccc(OCc3ccccc3)cn2)c(=O)[nH]c1=Cc1ccc(Cl)c(Cl)c1
2,61.5 to 62.5,CCCCCCCCCCCCNC(=O)ON=C(C1=C(Br)C(=O)C(C)(C)O1)c1ccccc1
3,114 to 115,Cc1c(N)c(C)c(Cc2ccc(C(C)C)cc2)c2c1CCO2
4,140 to 150,Cc1noc(NS(=O)(=O)c2ccccc2-c2ccc(-c3ncco3)cc2CN2CCN(c3ccccc3)C2=O)c1C
5,115 to 117,Clc1cccc(Cl)c1N=C1NCCN1OCc1ccccc1
6,195 to 197,COc1cc2c(cc1Cl)C(=O)Cc1ccc(F)cc1S2
7,223 to 224,CC(=O)NCc1cc(-c2ccccc2)c2c(n1)OCCN(Cc1cc(C(F)(F)F)cc(C(F)(F)F)c1)C2=O
8,131,CC(C(=O)Nc1ccc(Cl)cc1Cl)N1C(=O)C=CC1=O (stereo unspecified)
9,188 to 191,O=c1ccn(C2C=CC(COC(c3ccccc3)(c3ccccc3)c3ccccc3)O2)c(=O)[nH]1 (stereo unspecified)
10,174 to 175,COC(=O)[C@H](Cc1c(Br)[nH]c2cc(Br)c(OC)cc12)NC(C)=O
11,65 to 70,CC(C#Cc1ccc(C(O)c2cc3ccccc3s2)s1)N(O)C(N)=O (stereo unspecified)
12,122 to 123,O=c1nc(-c2ccc(C(F)(F)F)cc2)sc2ccccc12
13,138 to 140,CC(C)(C)c1ccc(-c2cc(Nc3ccc4[nH]ccc4c3)nnc2-c2ccccc2)cc1
14,75 to 78,COc1ccc2c(c1OC)CN(Cc1ccccc1)CCc1cc3c(cc1CC2)OCO3
15,> 285,CSc1ccc(-c2nc3[nH]nc(N)c3c(=O)n2-c2ccc(C)cc2)cc1
16,160 to 162,Cc1cc(Oc2ccc3nc(COc4ccc(CC5SC(=O)NC5=O)cc4)n(C)c3c2)cc(C)c1NC(=S)Nc1ccc(Cl)cc1 (stereo unspecified)
17,45 to 48,COc1cccc(OC/C=C(\C)C=O)c1
18,186 to 188,CNc1nc(-c2cccc(-c3cccnc3)c2)c2cc(OC)c(OC)cc2n1
19,319 to 323,CN1CCC(=C2c3ccccc3Sc3ccc(C(=O)O)cc32)CC1
20,133 to 134,O=c1oc(-c2ccccc2)cc(O)c1SCCc1cccc(Cl)c1
21,189 to 191,O=c1[nH]c2ccc(S(=O)CCN3CCC(Cc4ccc(Cl)c(Cl)c4)CC3)cc2o1 (stereo unspecified)
22,192 to 195,CCNc1nc2ccccc2n(-c2ccc(Cl)cc2)c1=O
23,> 250,Cc1ccccc1-c1cc(F)c2c(c1)CC(CN)O2 (stereo unspecified)
24,85 to 86,Nc1ncnc2c1c(-c1ccc(Oc3ccccc3)cc1)cn2CCCCCCCCN1C(=O)c2ccccc2C1=O
25,182 to 184,CC(C)(C)Sc1c(CC(C)(C)C(=O)O)n(Cc2ccc(Cl)cc2)c2ccc(OCc3ccc(Cl)s3)cc12

row,melting point [°C],SMILES
1,190 to 191,CCCn1nc2c(N)nc3ccccc3c2c1CC(C)(C)NC(=O)C1CCCCC1
2,101 to 102,CN1CCCC1CCOc1ccccc1CCc1cccc(C#N)c1 (stereo unspecified)
3,174 to 176,O=C(c1ccc(C2=CCCc3ccccc32)cc1Cl)N1Cc2cccn2Cc2ccccc21
4,163,CC(=O)Nc1cc2c(cc1Oc1ccc(F)cc1F)C(=O)CC2c1ccccc1 (stereo unspecified)
5,71 to 73,O=P(CN(O)CP(=O)(OCc1ccccc1)OCc1ccccc1)(OCc1ccccc1)OCc1ccccc1
6,207,Cc1c(Sc2ccccc2C(F)(F)F)c2cc(NS(C)(=O)=O)ccc2n1CC(=O)O
7,124 to 132,N#CC(C(=O)CBr)c1cccc(Cl)c1 (stereo unspecified)
8,> 250,CC(C)C1=C(C#N)C(c2ccccc2Cl)c2c[nH]nc2N1 (stereo unspecified)
9,224 to 229,COc1cc(Nc2c(C#N)cnc3cc(-c4ccc(C5OCCCO5)o4)ccc23)c(Cl)cc1Cl
10,102 to 128,CN(CC(=O)C(Cc1c[nH]c2ccccc12)NC(=O)c1ccccc1)C(=O)N1CCCC1C(=O)O (stereo unspecified)
11,128,COC(=O)C1(NC(=O)Cc2cc(-c3ccc(Cl)cc3)ccc2Cl)CCC(C)(C)CC1
12,114,CCOC(=O)c1c(Nc2ccccc2[N+](=O)[O-])c(C)cn1C
13,148 to 150,CCCCCCOc1ccc2c(c1)c(CC(=O)O)c(C)n2Cc1ccc(Cl)cc1
14,283,O=C(O)Cc1cccc(C(=O)c2cc3cc(C(=O)O)sc3s2)c1
15,180 to 184,NC(=O)Cc1ccc(OCCc2coc(-c3ccccc3)n2)cc1
16,221 to 222,CCOC(=O)c1ccc(-c2[nH]nc3c2C(=O)c2c(NC(=O)NN4CCC[C@@H]4COC)cccc2-3)s1
17,126,COC(=O)CSCc1sccc1S(=O)(=O)N(C)c1cccc2cc(-c3nccs3)[nH]c12
18,105 to 108,O=C(O)[C@H]1C[C@H](CCc2ccccc2)Oc2ccc(F)cc21 (relative stereo)
19,107,C[C@@H](S[C@H]1CO[C@H](c2ccc(C(=O)Nc3nc4ccccc4s3)cc2)OC1)[C@](O)(Cn1cncn1)c1ccc(F)cc1F
20,79 to 81,CC=CCN1C(=O)c2ccccc2Oc2ncccc21
21,140 to 145,c1cc(CN2CCCCC2)cc(OCCCCCNc2nc3ccccc3s2)c1
22,158 to 160,CC(C)Oc1cccc(OC(=O)NCc2c(-c3ccccc3)c3cc(Cl)ccc3c(=O)n2C)c1
23,145 to 148,CCC1(CCCCN2CCN(c3ccccc3Cl)CC2)C(=O)Nc2ccccc21 (stereo unspecified)
24,43 to 46,CCOC(=O)c1ccc(N(Cc2ccc(Cl)cc2)C(=O)OCC)cc1
